From patent US8404869B2, “Phenanthrenequinone-based compound and pharmaceutical composition containing the same for the treatment or prevention of disease involving metabolic syndrome” (Mazence Inc., priority 2007, dated 2013) come the findings set out here.

The test system of one assay is AMPK. Kind of assay: Determination of AMPK activation in differentiated C2C12 myoblast cells (SAMS peptide, [γ-32P]ATP). The conditions noted are these: C2C12 myoblast cells treated at 5 μg/ml; DMSO (0.5%) control = 1. The class given is cell-based. As for the experimental part:
Myoblast cells, C2C12, were cultured in DMEM containing 10% bovine calf serum. When a cell density reached a range of about 85% to 90%, the culture medium was replaced with a medium containing 1% bovine calf serum to induce differentiation of cells. The thus-differentiated myoblast cells were treated with samples synthesized in Examples 1 through 16 at a concentration of 5 μg/ml, and compared with a control group. Enzymatic activity of AMPK was determined as follows. Firstly, C2C12 cells were lysed to obtain protein extracts and then ammonium sulfate was added to a final concentration of 30%, thereby precipitating proteins. Protein precipitates were dissolved in a buffer (62.5 mM Hepes, pH 7.2, 62.5 mM NaCl, 62.5 mM NaF, 1.25 mM Na pyrophosphate, 1.25 mM EDTA, 1 mM DTT, 0.1 mM PMSF, and 200 μM AMP). Thereafter, 200 μM SAMS peptide (HMRSAMSGLHLVKRR: the underlined serine residue is a phosphorylation site, as an AMPK phosphorylation site of acetyl-CoA carboxylase) and [γ-32P]ATP were added thereto and reactants were reacted for 10 minutes at 30° C. This was followed by spotting of the resulting reaction solution on p81 phosphocellulose paper. The p81 paper was washed with a 3% phosphoric acid solution and radioactivity thereof was measured. For each reaction condition, reactions involving no SAMS peptide were also conducted and basic values were subtracted from the thus-observed values.

Assay [1] concerns C57BL/6JL Lep ob/Lep ob mice. Kind of assay: Weight loss effects in obese mice (ob/ob). The class given is in vivo. The conditions noted are these: mixed-feed of 0.4% for 18 days; for change in vivo at 0.4 % in feed: Mus musculus, po, 432 h, (Final BW−Initial BW)/Initial BW×100, read-out: Increase in BW; for Final BW: ob/ob male mice. As to the method: (§1) 10-week-old C57BL/6JL Lep ob/Lep ob male mice having obesity characteristics and predisposition were purchased from Daehan Biolink Co., Ltd. (Chungchongbuk-do, Korea). Animals were raised in a breeding room maintained at a temperature of 23° C., 55% humidity, illumination of 300 to 500 lux, a 12-h light/dark (L/D) cycle, and ventilation of 10 to 18 times/hr. Animals were fed ad libitum pellets of Purina Rodent Laboratory Chow 5001 (purchased from Purina Mills Inc., St. Louis, Mo., USA) as a solid feed for experimental animals and tap water as drinking water. Mice were allowed to acclimate to new environment of the breeding room for two weeks and were then administered some pyrano-3,4-phenanthrenequinone or furano-3,4-naphthoquinone derivatives synthesized according to the present invention at mixed-feed of 0.4% for 18 days. Observation was made on changes in body weight, blood glucose and dietary intake, with respect to a time course of administration. After administration was complete, confirm changes in glucose, lipid and enzyme levels in blood.
(§2) For comparison, the same experiments were carried out for the subject (negative control group) to which the active ingredient was not administered, and subject (positive control group) to which Cryptotanshinone, extracted from Danshen by a method as set forth in Example 1 of the Korean Patent Application No. 2004-0116339 by the present applicant, was administered by the above-mentioned condition.
Herein, ‘Increase in BW’ is calculated as the following; Increase in BW=(Final BW−Initial BW)/Initial BW×100

Assay [2] deals with C57BL/6JL Lep ob/Lep ob mice. The assay is described as follows: Blood biomarkers (lipid, glucose, enzyme levels) in ob/ob mice. The class given is in vivo. On the set-up: unit not given here. The conditions noted are these: after mixed-feed of 0.4% for 18 days. As for the experimental part: as §1, §2

As for `CC1CC2=C(O1)c1ccc3ccc(C(C)(C)C)cc3c1C(=O)C2=O` (stereo not drawn) [Example 11, 8-tert-Butyl-2-methyl-1,2-dihydro-phenanthro[1,2-b]furan-10,11-dione], the AMPK fold in the assay on AMPK was 2.3 fold. In assay [1], the change in vivo at 0.4 % in feed was -1.2% and the “Final BW” value turned out to be 52.2 ± 1.4 g. In assay [2], this compound returned a GOT of 347.5, a GPT of 197.5, an HDL chol of 47.5 and an LDL chol of 9.95. In assay [2], this compound showed a T. chol of 134.0, a glucose of 175 and a triglyceride of 82.0.

In turn, `CC1OC2=C(C(=O)C(=O)c3c2ccc2ccc(C(C)(C)C)cc32)C1(C)C` (stereo not drawn) [Example 12, 8-tert-Butyl-1,1,2-trimethyl-1,2-dihydro-phenanthro[1,2-b]furan-10,11-dione] displayed an AMPK fold in the assay on AMPK of 2.2 fold. In assay [1], the change in vivo at 0.4 % in feed was -6.9% and the “Final BW” value is 48.3 ± 2.3 g. In addition, in assay [2], the GOT amounted to 355.0, the GPT is listed as 77.0, the HDL chol is reported as 48.0 and the LDL chol was 11.00. In assay [2], this compound displayed a T. chol of 135.0, a glucose of 153 and a triglyceride of 69.0.

In the assay on AMPK, `CC1CC2=C(O1)c1ccc3ccc(Cl)cc3c1C(=O)C2=O` (stereo not drawn) [Example 13, 8-Chloro-2-methyl-1,2-dihydro-phenanthro[1,2-b]furan-10,11-dione] came in with an AMPK fold of 2.3 fold. In addition, in assay [1], the change in vivo at 0.4 % in feed was -6.3% and the “Final BW” value amounted to 48.8 ± 2.5 g. In assay [2], this compound gave a GOT of 373.5, a GPT of 184.0, an HDL chol of 44.0 and an LDL chol of 12.00. Moreover, in assay [2], the T. chol worked out at 125.5, the glucose was determined as 138 and the triglyceride is reported as 85.3.

`Cc1ccc2ccc3c(c2c1)C(=O)C(=O)C1=C3OC(C)C1` (stereo not drawn) [Example 14, 2,8-Dimethyl-1,2-dihydro-phenanthro[1,2-b]furan-10,11-dione] came in with an AMPK fold in the assay on AMPK of 2.5 fold. Moreover, in assay [1], the change in vivo at 0.4 % in feed was -7% and the “Final BW” value is given as 48.7 ± 1.9 g. Besides, in assay [2], the GOT is 283.3, the GPT amounted to 66.7, the HDL chol is 45.0 and the LDL chol is 5.00. In assay [2], this compound had a T. chol of 115.0, a glucose of 146 and a triglyceride of 88.3.

Regarding `COc1ccc2ccc3c(c2c1)C(=O)C(=O)C1=C3OC(C)C1` (stereo not drawn) [Example 15, 8-Methoxy-2-methyl-1,2-dihydro-phenanthro[1,2-b]furan-10,11-dione], the AMPK fold in the assay with AMPK is 2.2 fold. Also, in assay [1], the change in vivo at 0.4 % in feed is -6.7% and the “Final BW” value amounted to 48.5 ± 1.5 g. Besides, in assay [2], the GOT is listed as 312.5, the GPT is given as 206.7, the HDL chol was 46.0 and the LDL chol is given as 8.75. In assay [2], this compound displayed a T. chol of 142.0, a glucose of 155 and a triglyceride of 79.0.

The compound `Cc1cc2c(c3ccccc13)C(=O)C(=O)C1=C2OC(C)(C)CC1` [Example 16, 3,3,6-Trimethyl-2,3-dihydro-1H-4-oxa-chrysene-11,12-dione] yielded an AMPK fold in the assay on AMPK of 1.9 fold. Also, in assay [1], the change in vivo at 0.4 % in feed was -7.2% and the “Final BW” value is given as 48.0 ± 1.9 g. In assay [2], this compound came in with a GOT of 342.5, a GPT of 197.5, an HDL chol of 47.0 and an LDL chol of 12.00. Also, in assay [2], the T. chol is reported as 140.0, the glucose worked out at 135 and the triglyceride was 82.3.
